Laboratory results reported in US5811450A, “Thiepane compounds” (Gilead Sciences, Inc., priority 1996, dated 1998).
Where two headings read alike, the source gives them in different places.

Columns and labels:
HIV protease = target: T1, HIV protease (Human immunodeficiency virus type 1 group M subtype B, UniProt P04585); test: biochemical
T1 construct: fluorometric method for measurement of HIV-protease (HIV-PR) activity utilizing a synthetic peptide substrate
Method: Compositions to be subjected to enzyme assay are lyophilited and diluted in DMSO to 100-1000 μM. Compositions having apparent IC50 <1 μm are diluted to 100 μM.
The assay is a fluorometric method for measurement of HIV-protease (HIV-PR) activity utilizing a synthetic peptide substrate for HIV-PR based on that described by Matayoshi, E.D.; Wang, G.T.; Krafft, G.A.; and Erickson, J.W.; Science, 1990, 247, 954-958; and Wang, G.T.; Huffker, J.A.; Matayoshi, E.; and Krafft, G.A.; Tetrahedron Lett., 1990, 165 6493-6496.
Buffer: 0.1M sodium acetate
1.0 mM ethylenediaminetetraacetic acid (EDTA)
1.0 mM dithiothreitol (DTT)
10% dimethyl sulfoxide (DMSO)
1 mg/mL bovine serum albumin (BSA) adjusted to pH 4.7
1. Prepare a solution of 2 μM HIV Protease Substrate 1 in the Assay Buffer.
2. Dispense the substrate solution into UV-pass fluorescence cuvettes (1 cm pathlength).
3. Set the excitation and emission monochromators of the spectrofluorimeter to 340 nm and 490 nm, respectively. To obtain the same kinetic constants as reported, cuvettes should be held at 37° C. throughout the assay.
4. Begin each assay by adding a small amount (<3% of the final volume) of HIV-PR-containing solution diluted tin the Assay Buffer.
5. Measure the initial rate of cleavage of fluorogenic substrate by monitoring the increase in fluorescence signal at 490 nm for 5-8 min at 37° C.
(§1) The apparent IC50 and IC50 values reported below in Table 25 were determined using the assays of Example 34 and 35, respectively. The values are indicated as follows: +=10-50 μM, ++2-10 μM, and +++<2 μM.

HIV IIIB = test: XTT cell culture assay, cells infected with HIV IIIB; format: cell-based; conditions: Human immunodeficiency virus 1, IIIB, read-out: Cell Culture IC50
Method: The method of Weislow, O.S.; Kiser, R.; Fine, D.L.; Bader, J.; Shoemaker, R.H.; and Boyd, M.R.; I. Nat. Cancer Institute, 1989, 81(8) 577-586 was applied with the following minor modifications:. Infection of cells with HIV IIIB was performed without polybrene. Cells were distributed to Microtiter wells containing the compound of the invention 4 h after infection with HIV IIIB. 2×XTT was added at 5-6 days post infection. 20 μl 2% Triton X-100 was added 1 hour after XTT addition.
1. Add 4 ml of XTT (5 mg/ml) to 8 ml of Deficient RPMI medium (no phenol red, no serum). Mix briefly at 45° C. to dissolve XTT.
2. Add 800 μl of PMS (0.2 mg/ml) to XTT/RPMI mixture.
3. Remove […] of cell free media from each well of a 96 well plate and replace with 100 μl of the XTT/PMS mixture.
4. Incubate at 37° C. for 1.5-2 h.
5. Read absorbance at 450 nm. Absorbance values are directly proportional to cell viability.
as §1

[1] = HIV protease, fluorogenic peptide substrate, pH 4.7, 37° C., read-out: Apparent Enzyme IC50
[2] = XTT assay, HIV IIIB infected cells, XTT 5-6 days post infection

SMILES	IC50 (HIV protease; [1])	IC50 (HIV IIIB; [2])	other results
[O-][S+]1CC(OCc2ccccc2)C(O)C(O)C(OCc2ccccc2)C1Cc1ccccc1 (centres unmarked) [107/3]	2 to 10 µM		
[O-][S+]1CC(OCc2ccccc2)C(O)C(O)C(OCc2ccccc2)C1Cc1ccccc1 (centres unmarked) [107/4]	2 to 10 µM	10 to 50 µM	
N#Cc1ccccc1O[C@@H]1[C@H](O)[C@@H](O)[C@@H](Oc2ccccc2C#N)C[S@+]([O-])[C@@H]1Cc1ccccc1 [107/8]	10 to 50 µM		
N#Cc1ccc(O[C@@H]2[C@H](O)[C@@H](O)[C@@H](Oc3ccc(C#N)cc3)C[S@@+]([O-])[C@@H]2Cc2ccccc2)cc1 [107/13]	10 to 50 µM		
[O-][S+]1C(Cc2ccccc2)C(OCc2ccccc2)C(O)C(O)C(OCc2ccccc2)C1Cc1ccccc1 (centres unmarked) [108/17]		2 to 10 µM	
O=[N+]([O-])c1cccc(CO[C@@H]2[C@H](O)[C@@H](O)C(NCc3ccccc3)C(Cc3ccccc3)S(=O)(=O)[C@@H]2Cc2ccccc2)c1 (some centres unmarked) [108/31]	< 2 µM	2 to 10 µM	
O=S1(=O)C(Cc2ccccc2)C(NCc2ccccc2)[C@H](O)[C@@H](O)[C@@H](OCc2ccccc2)[C@H]1Cc1ccccc1 (some centres unmarked) [108/34]	< 2 µM	2 to 10 µM	
O=S1(=O)C(Cc2ccccc2)C(NCCCc2ccccc2)[C@H](O)[C@@H](O)[C@@H](OCc2ccccc2)[C@H]1Cc1ccccc1 (some centres unmarked) [108/35]	< 2 µM	2 to 10 µM	
O=S1(=O)[C@H](Cc2ccccc2)[C@H](OCc2ccccn2)[C@H](O)[C@@H](O)[C@@H](OCc2ccccn2)[C@H]1Cc1ccccc1 [120/8]	< 2 µM	2 to 10 µM	
O=S1(=O)[C@H](Cc2ccccc2)[C@H](OCc2ccccn2)[C@H](O)[C@@H](O)[C@@H](OCc2cccc[n+]2[O-])[C@H]1Cc1ccccc1 [120/9]	< 2 µM	2 to 10 µM	
Cc1nc(COC2C(O)C(O)C(OCc3csc(C)n3)C(Cc3ccccc3)S(=O)(=O)C2Cc2ccccc2)cs1 (centres unmarked) [120/22]		10 to 50 µM	
O=S1(=O)C(Cc2ccccc2)C(OCc2cncs2)C(O)C(O)C(OCc2cncs2)C1Cc1ccccc1 (centres unmarked) [120/25]		< 2 µM	
Cc1cccc(COC2C(O)C(O)C(OCc3cccc(C)c3)C(Cc3ccccc3)S(=O)(=O)C2Cc2ccccc2)c1 (centres unmarked) [120/31]		< 2 µM	
COc1cccc(COC2C(O)C(O)C(OCc3cccc(OC)c3)C(Cc3ccccc3)S(=O)(=O)C2Cc2ccccc2)c1 (centres unmarked) [120/34]		< 2 µM	
O=[N+]([O-])c1cccc(COC2C(O)C(O)C(OCc3cccc([N+](=O)[O-])c3)C(Cc3ccccc3)[S+]([O-])C2Cc2ccccc2)c1 (centres unmarked) [120/44]			IC50 (HIV IIIB): < 2 µM
O=[N+]([O-])c1cccc(COC2C(O)C(O)C(OCc3cccc([N+](=O)[O-])c3)C(Cc3ccccc3)S(=O)(=O)C2Cc2ccccc2)c1 (centres unmarked) [120/45]			IC50 (HIV IIIB): < 2 µM
Nc1cccc(COC2C(O)C(O)C(OCc3cccc(N)c3)C(Cc3ccccc3)S(=O)(=O)C2Cc2ccccc2)c1 (centres unmarked) [120/46]		< 2 µM	
CN(C)c1nc(CO[C@@H]2[C@H](O)[C@@H](O)[C@@H](OCc3csc(N(C)C)n3)[C@@H](Cc3ccccc3)S(=O)(=O)[C@@H]2Cc2ccccc2)cs1 [125/14]	< 2 µM		
O=[N+]([O-])c1ccc(OC2C(O)C(O)C(Oc3ccc([N+](=O)[O-])cc3)C(Cc3ccccc3)S(=O)(=O)C2Cc2ccccc2)cc1 (centres unmarked) [125/17]			IC50 (HIV IIIB): < 2 µM; IC50 (HIV protease): < 2 µM
Cc1ccc(OC2C(O)C(O)C(Oc3ccc(C)cn3)C(Cc3ccccc3)S(=O)(=O)C2Cc2ccccc2)nc1 (centres unmarked) [125/21]	2 to 10 µM		
O=[N+]([O-])c1ccc(OC2C(O)C(O)C(Oc3ccc([N+](=O)[O-])c(C(F)(F)F)c3)C(Cc3ccccc3)S(=O)(=O)C2Cc2ccccc2)cc1C(F)(F)F (centres unmarked) [125/27]			IC50 (HIV protease): < 2 µM
Nc1ccc(OC2C(O)C(O)C(Oc3ccc(N)c(C(F)(F)F)c3)C(Cc3ccccc3)S(=O)(=O)C2Cc2ccccc2)cc1C(F)(F)F (centres unmarked) [125/28]	< 2 µM	< 2 µM	
Cc1cccc(O[C@@H]2[C@H](O)[C@@H](O)[C@@H](Oc3cccc(C)n3)[C@@H](Cc3ccccc3)S(=O)(=O)[C@@H]2Cc2ccccc2)n1 [128/31]	10 to 50 µM		
Cc1ccnc(O[C@@H]2[C@H](O)[C@@H](O)[C@@H](Oc3cc(C)ccn3)[C@@H](Cc3ccccc3)S(=O)(=O)[C@@H]2Cc2ccccc2)c1 [128/35]	10 to 50 µM		
